According to PubChem BioAssay AID2060501 (Molecular Pharmacology Branch, DTP, NCI, 2025):
“And” between values parts separate entries of the source, which are not always exact repeats. Identical values can stand only once.

Test system: 282377-053-R-J1-PDC complex spheroids, viability
Assay: Anticancer human tumor 282377-053-R-J1-PDC patient-derived colon adenocarcinoma cell line growth inhibition [GQUAD]
Conditions: for viability, T/C: stronger effect = lower value
Description: DNA G-quadruplex Stabilizer Agents in Combinations in Complex Spheroids
A high-throughput screen of multi-cell type tumor spheroids was designed to identify active combinations of DNA G-quadruplex stabilizer agents and targeted small molecules. Complex spheroids include a stromal component modeled by human endothelial cells (HUVEC) and fibroblasts modeled by human mesenchymal stem cells (MSCs). The concentration ranges selected for each drug and investigational agent were based upon clinically achievable concentrations if the clinical Cmax of the agent was known.
Compounds. The drugs and investigational agents: pidnarulex (CX-5461; NSC782164), APTO-253 (NSC789042), BRACO-19 (NSC847499), peposertib (NSC802822), ceralasertib (NSC780249), elimusertib (NSC800525), camonsertib (NSC841442), AZD-1390 (NSC803789), olaparib (NSC753686), talazoparib (NSC767125), ART-558 (NSC835418), sotorasib (NSC818433), MRTX-1133 (NSC836407), SN-38 (NSC673596), topotecan (NSC609699), etoposide (NSC141540), doxorubicin (NSC123127), gemcitabine (NSC613327), 5-fluorouracil (NSC19893), paclitaxel (NSC125973), vemurafenib (NSC761431), panobinostat (NSC761190), R-306465 (JNJ-16241199; NSC773264), adavosertib (NSC754352), TP-3654 (NSC805149), carboplatin (NSC241240), KSQ-4279 (NSC840948), and staurosporine (NSC755774) were obtained from the National Cancer Institute (NCI) Developmental Therapeutics Program Chemical Repository (34). The FDA-approved anticancer drug set is available from the NCI Developmental Therapeutics Program. […] The stock solutions were prepared in dimethyl sulfoxide (DMSO, Sigma-Aldrich, St. Louis, MO, cat. D2650) at 800-fold the tested concentration and stored at -70 degrees C prior to their use. All drugs and investigational agents were tested over a range starting from a high concentration at or near the clinical Cmax and decreasing in half-log increments. If the clinical Cmax for an agent had not been determined, the highest concentration tested was 10 microM.
2.3 Cell Culture. All cells were maintained in an incubator at 37 degrees C and 5% CO2 with 95% humidity. The PDC lines were cultured according to standard operating procedures established by the NCI PDMR. All PDCs were thawed and cultured in Matrigel-coated flasks prepared with a working solution of 1X Ham's F-12 nutrient mix, without supplementation (Invitrogen, cat. 11765054), 100 U/mL penicillin-streptomycin (Invitrogen, cat. 15140122), and 2.5% Matrigel (Corning Inc., cat. 354248) for the first three passages. The 857933-349-R-J2-PDC line was cultured in 6C/Colon 1B media, which includes advanced DMEM/F-12 (Thermo Fisher Scientific, cat. 12634028), 10 mM HEPES (Thermo Fisher Scientific, cat. 15630080), 1X GlutaMAX supplement (Thermo Fisher Scientific, cat. 35050061), 0.1 mg/mL primocin (InvivoGen, cat. ant-pm-2), 10% defined fetal bovine serum, heat inactivated (HyClone Laboratories Inc., cat. SH30070.03HI), 50% L-WRN conditioned media (ATCC, cat. CRL-3276), 1.25 mM N-Acetyl-L-cysteine (Sigma-Aldrich, cat. A9165), 10 mM nicotinamide (Sigma-Aldrich, cat. N0636), 1X B-27 supplement (Thermo Fisher Scientific, cat. 17504044), 1X N-2 supplement (Thermo Fisher Scientific, cat. 17502048), 10 microM Y-27632 dihydrochloride (Tocris Bioscience, cat. 1254), and 50 ng/mL human EGF recombinant protein (Thermo Fisher Scientific, cat. PHG0311). The 485176-168-R4-J1-PDC line was cultured in Panc media, which includes all 6C/Colon 1B media components plus 100 ng/mL human FGF-10 (Thermo Fisher Scientific, cat. 100-26), 500 nM SB-431542 (Selleckchem, cat. S1067), and gastrin (Tocris, cat. 3006).
[…]

[1] = curve of first compound, second compound 0.0316 µM
[2] = curve of first compound, second compound 0.1 µM
[3] = curve of first compound, second compound 0.316 µM
[4] = curve of first compound, second compound 1 µM
[5] = curve of first compound, second compound 3.16 µM
[6] = curve of first compound, second compound 10 µM
[7] = second compound 0.0316 µM, first compound 0.0316 µM
[8] = second compound 0.0316 µM, first compound 0.1 µM
[9] = second compound 0.0316 µM, first compound 0.316 µM
[10] = second compound 0.0316 µM, first compound 1 µM
[11] = second compound 0.0316 µM, first compound 3.16 µM
[12] = second compound 0.0316 µM, first compound 10 µM
[13] = second compound 0.1 µM, first compound 0.0316 µM
[14] = second compound 0.1 µM, first compound 0.1 µM
[15] = second compound 0.1 µM, first compound 0.316 µM
[16] = second compound 0.1 µM, first compound 1 µM
[17] = second compound 0.1 µM, first compound 3.16 µM
[18] = second compound 0.1 µM, first compound 10 µM
[19] = second compound 0.316 µM, first compound 0.0316 µM
[20] = second compound 0.316 µM, first compound 0.1 µM
[21] = second compound 0.316 µM, first compound 0.316 µM
[22] = second compound 0.316 µM, first compound 1 µM
[23] = second compound 0.316 µM, first compound 3.16 µM
[24] = second compound 0.316 µM, first compound 10 µM
[25] = second compound 1 µM, first compound 0.0316 µM
[26] = second compound 1 µM, first compound 0.1 µM
[27] = second compound 1 µM, first compound 0.316 µM
[28] = second compound 1 µM, first compound 1 µM
[29] = second compound 1 µM, first compound 3.16 µM
[30] = second compound 1 µM, first compound 10 µM
[31] = second compound 3.16 µM, first compound 0.0316 µM
[32] = second compound 3.16 µM, first compound 0.1 µM
[33] = second compound 3.16 µM, first compound 0.316 µM
[34] = second compound 3.16 µM, first compound 1 µM
[35] = second compound 3.16 µM, first compound 3.16 µM
[36] = second compound 3.16 µM, first compound 10 µM
[37] = second compound 10 µM, first compound 0.0316 µM
[38] = second compound 10 µM, first compound 0.1 µM
[39] = second compound 10 µM, first compound 0.316 µM
[40] = second compound 10 µM, first compound 1 µM
[41] = second compound 10 µM, first compound 3.16 µM
[42] = second compound 10 µM, first compound 10 µM
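Further: spheroids exposed to compounds for 7 days before readout.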
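Wherever viability, T/C is given: percent of vehicle DMSO control viability with 100% = untreated-like growth.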

O=C(c1cc(Cc2n[nH]c(=O)c3ccccc23)ccc1F)N1CCN(C(=O)C2CC2)CC1 + Cc1cnc(CNC(=O)c2c(=O)c3ccc(N4CCCN(C)CC4)nc3n3c2sc2ccccc23)cn1
IC50 [1]: > 10 µM
IC50 [2]: > 10 µM
IC50 [3]: > 10 µM
IC50 [4]: > 10 µM
IC50 [5]: 2.43 µM
IC50 [6]: 0.0701 µM
viability, T/C [7]: 103%
viability, T/C [8]: 100%
viability, T/C [9]: 140%
viability, T/C [10]: 92.9%
viability, T/C [11]: 90.6%
viability, T/C [12]: 89.2%
viability, T/C [13]: 106%
viability, T/C [14]: 121%
viability, T/C [15]: 93%
viability, T/C [16]: 84.9%
viability, T/C [17]: 110%
viability, T/C [18]: 92.3%
viability, T/C [19]: 84.2%
viability, T/C [20]: 91.9%
viability, T/C [21]: 74.6%
viability, T/C [22]: 89.8%
viability, T/C [23]: 95.6%
viability, T/C [24]: 73.3%
viability, T/C [25]: 61.2%
viability, T/C [26]: 55.8%
viability, T/C [27]: 54.7%
viability, T/C [28]: 61%
viability, T/C [29]: 60.8%
viability, T/C [30]: 54%
viability, T/C [31]: 60.8%
viability, T/C [32]: 51.1%
viability, T/C [33]: 59.2%
viability, T/C [34]: 52.3%
viability, T/C [35]: 46.2%
viability, T/C [36]: 48.6%
viability, T/C [37]: 52.9%
viability, T/C [38]: 47.4%
viability, T/C [39]: 47.7%
viability, T/C [40]: 48.9%
viability, T/C [41]: 40.1%
viability, T/C [42]: 46.6%

CN(C)c1ccc(Nc2c3ccc(NC(=O)CCN4CCCC4)cc3nc3cc(NC(=O)CCN4CCCC4)ccc23)cc1
viability, T/C (compound 0.1 µM): 96.9% [middle of 12 runs]
viability, T/C (compound 3.16 µM): 99.2% [middle of 12 runs]
IC50 (compound alone, run of 04/22/2024): > 10 µM

CC1COCCN1c1cc(C2(S(C)(=N)=O)CC2)nc(-c2ccnc3[nH]ccc23)n1 (centres undefined)
viability, T/C (compound 0.0316 µM): 96.3% and 86.8% and 105%
viability, T/C (compound 0.1 µM): 101% and 80.1% and 81.3%
viability, T/C (compound 0.316 µM): 100% and 97.5% and 101%
viability, T/C (compound 1 µM): 62.2% and 81.9% and 77.9%
viability, T/C (compound 3.16 µM): 86.1% and 70.7% and 78.6%
viability, T/C (compound 10 µM): 42.4% and 60.9% and 49.9%
IC50 (curve of compound): 8.36 µM and > 10 µM

Cc1cccc(N(C)C(=O)C2C(O)CCN2c2nc(C)cc(C(F)(F)F)c2C#N)c1 (centres undefined) + Cc1[nH]c2ccc(F)cc2c1-c1nc2c3cccnc3c3ncccc3c2[nH]1
IC50 [1]: > 10 µM
IC50 [2]: > 10 µM
IC50 [3]: > 10 µM
IC50 [4]: > 10 µM
IC50 [5]: > 10 µM
IC50 [6]: 0.567 µM
viability, T/C [7]: 89.3%
viability, T/C [8]: 94.1%
viability, T/C [9]: 113%
viability, T/C [10]: 95.9%
viability, T/C [11]: 100%
viability, T/C [12]: 76.2%
viability, T/C [13]: 95.7%
viability, T/C [14]: 91.3%
viability, T/C [15]: 83.5%
viability, T/C [16]: 109%
viability, T/C [17]: 82.8%
viability, T/C [18]: 94.6%
viability, T/C [19]: 77.2%
viability, T/C [20]: 100%
viability, T/C [21]: 92.1%
viability, T/C [22]: 92.8%
viability, T/C [23]: 93%
viability, T/C [24]: 114%
viability, T/C [25]: 86%
viability, T/C [26]: 88.3%
viability, T/C [27]: 94.6%
viability, T/C [28]: 109%
viability, T/C [29]: 86.2%
viability, T/C [30]: 89.6%
viability, T/C [31]: 78%
viability, T/C [32]: 73%
viability, T/C [33]: 66.8%
viability, T/C [34]: 65.7%
viability, T/C [35]: 75.5%
viability, T/C [36]: 79.3%
viability, T/C [37]: 47%
viability, T/C [38]: 56.4%
viability, T/C [39]: 66.4%
viability, T/C [40]: 43.6%
viability, T/C [41]: 36.8%
viability, T/C [42]: 35%
